This note sets out measurements from ChEMBL document CHEMBL1770050, “Effect of carbohydrate amino group modifications on the cytotoxicity of glycosylated 2-phenyl-benzo[b]thiophenes and 2-phenyl-benzo[b]furans” (Bioorg Med Chem Lett, 2011).

The test system of experiment [1] is HepG2. Nature of the experiment: Cytotoxicity against human HepG2 cells after 3 days by MTS assay. The class given is functional, cell-based. Conditions: HepG2, 72 h.
The subject of experiment [2] is MCF7. In words: Cytotoxicity against human MCF7 cells after 3 days by MTS assay. The class given is functional, cell-based. Conditions: MCF7, 72 h. In general terms: Tetrazolium assays rely on reduction of a dye to a coloured formazan, in cell work by metabolically active cells.
Experiment [3] deals with HT-29. Nature of the experiment: Cytotoxicity against human HT-29 cells after 3 days by MTS assay. The class given is functional, cell-based. The settings on record: HT-29, 72 h.
In experiment [4] the test system is MCF7. In words: Cytotoxicity against human MCF7 cells assessed as cell viability at 25 uM after 3 days by MTS assay. The class given is functional. The settings on record: MCF7, 72 h, read-out: Activity.
The subject of experiment [5] is HT-29. In words: Cytotoxicity against human HT-29 cells assessed as cell viability at 25 uM after 3 days by MTS assay. The class given is functional. Conditions: HT-29, 72 h, read-out: Activity.
The subject of experiment [6] is HepG2. In words: Cytotoxicity against human HepG2 cells assessed as cell viability at 25 uM after 3 days by MTS assay. The class given is functional. Conditions: HepG2, 72 h, read-out: Activity.
Experiment [7] relates to MCF7. Nature of the experiment: Cytotoxicity against human MCF7 cells at 25 µM after 3 days by MTS assay. Conditions: MCF7, 72 h.
Experiment [8] deals with Nucleic Acid. In words: Binding affinity to Sheared herring sperm DNA assessed as remaining displaced EtBr by fluorescent intercalator displacement assay. The class given is nucleic-acid assay. More on the design: concentration or dose not given beside the values.

A value given as a limit tells only on which side of the number the result lay.

With `C[C@@H]1O[C@@H](OCC#Cc2c(-c3ccccc3)sc3ccccc23)CC[C@@H]1N(C)CC#N`, the IC50 in experiment [1] amounted to 12.3 µM; in experiment [2], 7.7 µM; in experiment [3], 6.2 µM.

Turning to `CCCCN(CCCC)[C@H]1CC[C@H](OCC#Cc2c(-c3ccccc3)sc3ccccc23)O[C@H]1C`, the IC50 in experiment [1], in experiment [2] and in experiment [3] was greater than 25 µM each time.

Regarding `COc1ccc(CN[C@H]2CC[C@H](OCC#Cc3c(-c4ccccc4)oc4ccccc34)O[C@H]2C)cc1`, the results for the viability at 25 µM in experiment [4], in experiment [5] and in experiment [6] were 31%, 8% and 12%, respectively. Moreover, the IC50 in experiment [1] came out at 13.1 µM; in experiment [3] it was 7.9 µM. Further, the cell viability at 25 µM in experiment [7] worked out at 31%.

For `CCN(CC)[C@H]1CC[C@H](OCC#Cc2c(-c3ccccc3)sc3ccccc23)O[C@H]1C`, the values for the IC50 in experiment [1], in experiment [2] and in experiment [3] were 11.7 µM, 12 µM and 3.9 µM, respectively.

With `CCCCN[C@H]1CC[C@H](OCC#Cc2c(-c3ccccc3)sc3ccccc23)O[C@H]1C`, the IC50 was 18.6 µM in experiment [1], 10.2 µM in experiment [2] and 7 µM in experiment [3].

For `CCCCN[C@H]1CC[C@H](OCC#Cc2c(-c3ccccc3)oc3ccccc23)O[C@H]1C`, the IC50 in experiment [1] was 19 µM; in experiment [2], 20.8 µM; in experiment [3] it was 9.8 µM.

Consider `C[C@@H]1O[C@@H](OCC#Cc2c(-c3ccccc3)sc3ccccc23)CC[C@@H]1NCC#N`, for which the IC50 in experiment [1] is 18 µM; in experiment [2], 10.5 µM; in experiment [3], 10.8 µM.

Take `C[C@@H]1O[C@@H](OCC#Cc2c(-c3ccccc3)oc3ccccc23)CC[C@@H]1NCc1ccco1`: the viability at 25 µM in experiment [4] was 77%; in experiment [5] it was 24%; in experiment [6], 70%. Besides, the IC50 was greater than 25 µM in experiment [1], greater than 25 µM in experiment [2] and 15.2 µM in experiment [3].

On to `C[C@@H]1O[C@@H](OCC#Cc2c(-c3ccccc3)sc3ccccc23)CC[C@@H]1N(C)C`, for which the IC50 was found to be 10 µM in experiment [1], 8.2 µM in experiment [2] and 3.3 µM in experiment [3].

In the case of `CC(C)N[C@H]1CC[C@H](OCC#Cc2c(-c3ccccc3)oc3ccccc23)O[C@H]1C`, the Activity in experiment [8] was determined as 79%. The IC50 in experiment [1] came out at 13 µM; in experiment [2] it was 12.6 µM; in experiment [3], 5.8 µM.

Turning to `C[C@@H]1O[C@@H](OCC#Cc2c(-c3ccccc3)oc3ccccc23)CC[C@@H]1N`, the viability at 25 µM in experiment [4], in experiment [5] and in experiment [6] was less than 1% each time. In experiment [8], the Activity came out at 68.5%.

As for `C[C@@H]1O[C@@H](OCC#Cc2c(-c3ccccc3)oc3ccccc23)CC[C@@H]1NCc1ccc[nH]1`, the results for the viability at 25 µM in experiment [4], in experiment [5] and in experiment [6] were 14%, less than 1% and less than 1%, respectively. Also, the IC50 in experiment [1] stood at 20.8 µM; in experiment [2] it was 18.1 µM; in experiment [3], 11.1 µM.

On to `C[C@@H]1O[C@@H](OCC#Cc2c(-c3ccccc3)sc3ccccc23)CC[C@@H]1NCc1ccc(O)cc1`, for which the IC50 in experiment [1] turned out to be 20.3 µM; in experiment [2], 12 µM; in experiment [3] it was 5.1 µM.

As for `CN[C@H]1CC[C@H](OCC#Cc2c(-c3ccccc3)sc3ccccc23)O[C@H]1C`, the IC50 came to 8.8 µM in experiment [1], 7.1 µM in experiment [2] and 5.4 µM in experiment [3].

Take `C[C@@H]1O[C@@H](OCC#Cc2c(-c3ccccc3)oc3ccccc23)CC[C@@H]1NCc1ccc(O)cc1`: the viability at 25 µM was 2% in experiment [4], less than 1% in experiment [5] and less than 1% in experiment [6]. Further, the IC50 in experiment [1] stood at 13.4 µM; in experiment [2], 10.9 µM; in experiment [3] it was 5.8 µM.

For the compound `C[C@@H]1O[C@@H](OCC#Cc2c(-c3ccccc3)sc3ccccc23)CC[C@@H]1NCc1ccccc1`, the IC50 in experiment [1] was greater than 25 µM; in experiment [2], greater than 25 µM; in experiment [3], 19 µM.

As to `CC(C)CCN(CCC(C)C)[C@H]1CC[C@H](OCC#Cc2c(-c3ccccc3)oc3ccccc23)O[C@H]1C`, the IC50 in experiment [1], in experiment [2] and in experiment [3] was greater than 25 µM throughout.

Turning to `C[C@@H]1O[C@@H](OCC#Cc2c(-c3ccccc3)oc3ccccc23)CC[C@@H]1NCC1CCCCC1`, the 50% inhibitory concentration (IC50) in experiment [1] is greater than 25 µM; in experiment [2] it was greater than 25 µM; in experiment [3], 10.2 µM.

With `CCCCCCN[C@H]1CC[C@H](OCC#Cc2c(-c3ccccc3)oc3ccccc23)O[C@H]1C`, the IC50 came to 14.4 µM in experiment [1], 14.8 µM in experiment [2] and 6 µM in experiment [3].

Take `COc1cc(CN[C@H]2CC[C@H](OCC#Cc3c(-c4ccccc4)oc4ccccc34)O[C@H]2C)cc(OC)c1OC`: the results for the viability at 25 µM in experiment [4], in experiment [5] and in experiment [6] were 30%, 6% and 7%, respectively. Further, the IC50 in experiment [1] stood at 11.3 µM; in experiment [3], 8 µM. The compound further had a cell viability at 25 µM in experiment [7] of 30%.

Regarding `COc1ccc(CN[C@H]2CC[C@H](OCC#Cc3c(-c4ccccc4)sc4ccccc34)O[C@H]2C)cc1`, the IC50 in experiment [1] was greater than 25 µM; in experiment [2], greater than 25 µM; in experiment [3] it was 6.2 µM.

Take `CCCCCCN[C@H]1CC[C@H](OCC#Cc2c(-c3ccccc3)sc3ccccc23)O[C@H]1C`: the figures for the IC50 in experiment [1], in experiment [2] and in experiment [3] were 19.1 µM, 6.8 µM and 5.1 µM, respectively.

For `C[C@H](N)C(=O)N[C@H]1CC[C@H](OCC#Cc2c(-c3ccccc3)oc3ccccc23)O[C@H]1C`, the Activity in experiment [8] amounted to 52.9%. For the same compound, the IC50 worked out at 4.1 µM in experiment [1], 8 µM in experiment [2] and 6.8 µM in experiment [3].

For `CC(=O)N[C@H]1CC[C@H](OCC#Cc2c(-c3ccccc3)oc3ccccc23)O[C@H]1C`, in experiment [8], the Activity stood at 98.6%. Moreover, the results for the IC50 in experiment [1], in experiment [2] and in experiment [3] were 18.2 µM, 23.4 µM and 13.3 µM, respectively.

For `CCN(CC)[C@H]1CC[C@H](OCC#Cc2c(-c3ccccc3)oc3ccccc23)O[C@H]1C`, the IC50 came out at 10.7 µM in experiment [1], 9.7 µM in experiment [2] and 6.8 µM in experiment [3].

Regarding `C[C@@H]1O[C@@H](OCC#Cc2c(-c3ccccc3)oc3ccccc23)CC[C@@H]1NCc1ccccc1`, the viability at 25 µM in experiment [4] was 72%; in experiment [5], 31%; in experiment [6] it was 87%. For the same compound, the values for the IC50 in experiment [1], in experiment [2] and in experiment [3] were greater than 25 µM, greater than 25 µM and 17.9 µM, respectively.

`C[C@@H]1O[C@@H](OCC#Cc2c(-c3ccccc3)oc3ccccc23)CC[C@@H]1NCc1ccc([N+](=O)[O-])cc1`: the viability at 25 µM in experiment [4] worked out at 86%; in experiment [5], 59%; in experiment [6] it was 94%. In addition, the IC50 in experiment [1], in experiment [2] and in experiment [3] was greater than 25 µM in each case.

As for `CCN[C@H]1CC[C@H](OCC#Cc2c(-c3ccccc3)sc3ccccc23)O[C@H]1C`, the IC50 in experiment [1] is 6.6 µM; in experiment [2], 5.9 µM; in experiment [3], 3.4 µM.

Consider `Cc1ccc(CN[C@H]2CC[C@H](OCC#Cc3c(-c4ccccc4)oc4ccccc34)O[C@H]2C)cc1`, for which the viability at 25 µM in experiment [4] is 51%; in experiment [5], 29%; in experiment [6], 65%. Besides, the IC50 in experiment [1] is greater than 25 µM; in experiment [2] it was greater than 25 µM; in experiment [3], 11.9 µM.

As to `CCN[C@H]1CC[C@H](OCC#Cc2c(-c3ccccc3)oc3ccccc23)O[C@H]1C`, in experiment [8], the Activity is 26%. Besides, the IC50 in experiment [1] came to 6 µM; in experiment [2], 9.2 µM; in experiment [3] it was 5.8 µM.

Turning to `CC(C)CCN[C@H]1CC[C@H](OCC#Cc2c(-c3ccccc3)oc3ccccc23)O[C@H]1C`, the IC50 in experiment [1] came to 13.6 µM; in experiment [2], 11.3 µM; in experiment [3] it was 6.6 µM.

Regarding `C[C@@H]1O[C@@H](OCC#Cc2c(-c3ccccc3)oc3ccccc23)CC[C@@H]1N(C)C`, the values for the IC50 in experiment [1], in experiment [2] and in experiment [3] were 6.8 µM, 10.3 µM and 6.1 µM, respectively.

As to `CCCCN(CCCC)[C@H]1CC[C@H](OCC#Cc2c(-c3ccccc3)oc3ccccc23)O[C@H]1C`, the IC50 in experiment [1], in experiment [2] and in experiment [3] was greater than 25 µM throughout.

Regarding `C[C@@H]1O[C@@H](OCC#Cc2c(-c3ccccc3)oc3ccccc23)CC[C@@H]1NCc1ccccn1`, the viability at 25 µM is 11% in experiment [4], less than 1% in experiment [5] and less than 1% in experiment [6]. Further, the IC50 in experiment [1] was 16.3 µM; in experiment [2] it was 14.3 µM; in experiment [3] it was 10.8 µM.

The term IC50 denotes the point on the concentration scale where inhibition reaches its midpoint. What is called cell viability is a read-out of living cells in per cent, often relative to untreated cells.
